These results are taken from US20080293721A1, “ARYLTHIOACETAMIDE CARBOXYLATE DERIVATIVES AS FKBP INHIBITORS FOR THE TREATMENT OF NEUROLOGICAL DISEASES” (Burnham Institute for Medical Research, priority 2007, published 2008).

One assay has as its target FKBP12 (Homo sapiens, UniProt P62942). Briefly: secondary assays with isothermal titration calorimetry and 2D NMR (FIGS. 2, 3). It is filed as binding. An excerpt:
The ligand concentration chart refers to the compound having the formula VIII (i.e., p-toluoylthioacetylmorpholine) used as the ligand.

In assay [1] the test system is primary rat cortical neurons. Briefly: neurite outgrow with primary rat cortical neurons (FIGS. 4, 5; Sholl analysis). It is filed as cell-based. The following applies: FIG. 4. The text has this: FIGS. 4 and 5 show the effect of FKBP12 ligands on neurite outgrow with primary rat cortical neurons.

Usually Kd stands for a measure of binding affinity in units of concentration.

Sequence of FKBP12 (P62942 whole entry, species assumed): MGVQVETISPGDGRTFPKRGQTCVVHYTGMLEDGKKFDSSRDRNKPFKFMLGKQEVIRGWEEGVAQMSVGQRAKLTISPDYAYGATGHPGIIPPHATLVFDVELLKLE

The molecule `Cc1ccc(SCC(=O)N2CCOCC2)cc1` [VIII] displayed a Kd on FKBP12 of 4 µM.
In the case of `CC(C)c1ccc(SCC(=O)N2CCOCC2C(=O)OCCCc2cccnc2)cc1` (centres unmarked) [Compound VII, 3-(pyridine-3-yl)propyl 4-(2-(4-isopropylphenylthio)acetyl)morpholine-3-carboxylate], the “effect on neurite outgrow” value in assay [1] is reported as “particularly substantial”.
